The NIST ThermoML archive (doi:10.1016/j.jct.2005.11.009)
± gives the expanded uncertainty stated by the source.

Conditions: Liquid, Transpiration method

CCCCCCCCCCc1ccccc1 [1-phenyldecane]
vapor or sublimation pressure (318.2 K): 0.00122 ± 9e-05 kPa
vapor or sublimation pressure (323.2 K): 0.00192 ± 0.00014 kPa
vapor or sublimation pressure (328.3 K): 0.00293 ± 0.00021 kPa
vapor or sublimation pressure (333.5 K): 0.0045 ± 0.00032 kPa
vapor or sublimation pressure (338.6 K): 0.00655 ± 0.00047 kPa
vapor or sublimation pressure (343.7 K): 0.00966 ± 0.00069 kPa
vapor or sublimation pressure (348.7 K): 0.0144 ± 0.001 kPa
vapor or sublimation pressure (353.3 K): 0.0203 ± 0.0014 kPa
vapor or sublimation pressure (358.4 K): 0.0288 ± 0.002 kPa
vapor or sublimation pressure (363.4 K): 0.0406 ± 0.0029 kPa

CCCCCCCc1ccccc1 [heptylbenzene]
vapor or sublimation pressure (292.5 K): 0.00286 ± 0.00021 kPa
vapor or sublimation pressure (294.5 K): 0.00347 ± 0.00025 kPa
vapor or sublimation pressure (297.5 K): 0.00455 ± 0.00033 kPa
vapor or sublimation pressure (300.4 K): 0.00585 ± 0.00042 kPa
vapor or sublimation pressure (303.4 K): 0.00761 ± 0.00054 kPa
vapor or sublimation pressure (306.4 K): 0.00955 ± 0.00068 kPa
vapor or sublimation pressure (309.4 K): 0.01227 ± 0.00087 kPa
vapor or sublimation pressure (312.4 K): 0.01486 ± 0.0011 kPa
vapor or sublimation pressure (315.4 K): 0.01959 ± 0.0014 kPa
vapor or sublimation pressure (318.2 K): 0.02441 ± 0.0017 kPa
vapor or sublimation pressure (321.3 K): 0.03085 ± 0.0022 kPa
vapor or sublimation pressure (323.4 K): 0.03499 ± 0.0025 kPa
vapor or sublimation pressure (326.4 K): 0.04342 ± 0.0031 kPa
vapor or sublimation pressure (328.4 K): 0.04901 ± 0.0035 kPa
vapor or sublimation pressure (331.3 K): 0.06114 ± 0.0043 kPa
vapor or sublimation pressure (333.5 K): 0.06975 ± 0.0049 kPa
vapor or sublimation pressure (336.4 K): 0.0845 ± 0.006 kPa
vapor or sublimation pressure (338.5 K): 0.09752 ± 0.0069 kPa
vapor or sublimation pressure (341.3 K): 0.1139 ± 0.0081 kPa
vapor or sublimation pressure (343.5 K): 0.1322 ± 0.0094 kPa
vapor or sublimation pressure (346.3 K): 0.1552 ± 0.011 kPa
vapor or sublimation pressure (348.5 K): 0.1818 ± 0.013 kPa
vapor or sublimation pressure (351.5 K): 0.2197 ± 0.015 kPa
vapor or sublimation pressure (353.5 K): 0.2474 ± 0.018 kPa

CCCCCc1ccccc1 [pentylbenzene]
vapor or sublimation pressure (284.5 K): 0.0162 ± 0.0012 kPa
vapor or sublimation pressure (287.5 K): 0.0218 ± 0.0016 kPa
vapor or sublimation pressure (290.4 K): 0.0272 ± 0.0019 kPa
vapor or sublimation pressure (293.3 K): 0.0333 ± 0.0024 kPa
vapor or sublimation pressure (293.4 K): 0.0328 ± 0.0023 kPa
vapor or sublimation pressure (296.3 K): 0.0427 ± 0.003 kPa
vapor or sublimation pressure (298.3 K): 0.0493 ± 0.0035 kPa
vapor or sublimation pressure (303.2 K): 0.0706 ± 0.005 kPa
vapor or sublimation pressure (306.3 K): 0.0902 ± 0.0064 kPa
vapor or sublimation pressure (308.2 K): 0.0998 ± 0.0071 kPa
vapor or sublimation pressure (311.2 K): 0.1227 ± 0.0087 kPa
vapor or sublimation pressure (314.2 K): 0.1487 ± 0.011 kPa
vapor or sublimation pressure (317.3 K): 0.1765 ± 0.013 kPa
vapor or sublimation pressure (320.3 K): 0.2193 ± 0.016 kPa
vapor or sublimation pressure (323.2 K): 0.2711 ± 0.019 kPa

CCCCCCCCCCCc1ccccc1 [undecylbenzene]
vapor or sublimation pressure (313.2 K): 0.00027 ± 2e-05 kPa
vapor or sublimation pressure (319.3 K): 0.0005 ± 4e-05 kPa
vapor or sublimation pressure (323.3 K): 0.00072 ± 5e-05 kPa
vapor or sublimation pressure (327.3 K): 0.00104 ± 7e-05 kPa
vapor or sublimation pressure (331.3 K): 0.00146 ± 0.0001 kPa
vapor or sublimation pressure (333.4 K): 0.00176 ± 0.00013 kPa
vapor or sublimation pressure (338.4 K): 0.00262 ± 0.00019 kPa
vapor or sublimation pressure (343.5 K): 0.00413 ± 0.0003 kPa
vapor or sublimation pressure (348.7 K): 0.00598 ± 0.00043 kPa
vapor or sublimation pressure (353.6 K): 0.00906 ± 0.00065 kPa
vapor or sublimation pressure (358.7 K): 0.01272 ± 0.0009 kPa
vapor or sublimation pressure (363.8 K): 0.01807 ± 0.0013 kPa
